From the SangsterLogP compilation come the findings set out here.

The structures appear in SMILES notation.

One data set can be described thus: method code G-HPLC, from DOI: 10.1021/je00030a025.
Take `CCCCCc1ccccc1`: the log partition coefficient (logP) (as a rule, the decadic logarithm of the partition coefficient of the neutral form, usually between octanol and water) turned out to be 4.9. Regarding `O=Cc1ccco1`, the logP was 0.52.

For `CCCCCCCC(C)=O`, the logP is 3.18. Compound `C=CCCBr` yielded a logP of 2.53.

Consider `Fc1cccc(CCl)c1`, for which the logP stood at 2.77. As for `CCCCCCC(C)=O`, the log partition coefficient (logP) is 2.76. As for `CC(=O)OCCBr`, the logP was found to be 1.11.

A short description of the next data set: method code G-GLC, from DOI: 10.1021/je00030a025.
In turn, `C#CCCCC` returned a lipophilicity (logP) of 2.73. `Fc1ccccc1CCl` gave a logP of 2.67. `CCCCCCBr` showed a logP of 3.8. `ClCCCBr` registered a logP of 2.18. Same read-out and setting: with `CCCCCCCI` the figure was 4.7; with `CCCCCCCO`, 2.57.

`C=CCCCCCCC`: the logP worked out at 5.15.

With `CCCCCCCC`, the logP worked out at 5.18. For the compound `CCC(=O)CC`, the lipophilicity (logP) was 0.99.

Compound `CCCCCCCCl` came in with a logP of 4.15. Consider `C=CCCCCC`, for which the logP stood at 3.99. The compound `CCCCCCCCBr` displayed a lipophilicity (logP) of 4.89.
